# Columns and labels:
# Experiment in all cases: relative viability (nuclei count vs DMSO), 5 days (fraction); higher = more cells survive
# CX-5461 + Vorinostat = compound: Cc1cnc(CNC(=O)c2c(=O)c3ccc(N4CCCN(C)CC4)nc3n3c2sc2ccccc23)cn1 [CX-5461] + O=C(CCCCCCC(=O)Nc1ccccc1)NO [Vorinostat] (partner 1 µM)
# Summary of the method: (§1)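 Lung cancer cell lines, seeded in 1536-well plates, were treated the following day by pin tool with a single drug or with five library-drug doses (not always all listed) in √10 steps on top of a fixed anchor-drug dose. Cells were fixed and nuclei stained in one step after 5 days, and nuclei were counted. Relative viability is the nuclei count for treated wells divided by that for vehicle wells, reported as medians of duplicate plates.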
# IMD-0354 + Dasatinib = compound: O=C(Nc1cc(C(F)(F)F)cc(C(F)(F)F)c1)c1cc(Cl)ccc1O [IMD-0354] + Cc1nc(Nc2ncc(C(=O)Nc3c(C)cccc3Cl)s2)cc(N2CCN(CCO)CC2)n1 [Dasatinib] (partner 0.075 µM)
# Summary of the method: as §1
# IMD-0354 + Decitabine = compound: O=C(Nc1cc(C(F)(F)F)cc(C(F)(F)F)c1)c1cc(Cl)ccc1O [IMD-0354] + Nc1ncn([C@H]2C[C@H](O)[C@@H](CO)O2)c(=O)n1 [Decitabine] (partner 2 µM)
# Summary of the method: as §1
# IMD-0354 + Vorinostat = compound: O=C(Nc1cc(C(F)(F)F)cc(C(F)(F)F)c1)c1cc(Cl)ccc1O [IMD-0354] + O=C(CCCCCCC(=O)Nc1ccccc1)NO [Vorinostat] (partner 1 µM)
# Summary of the method: as §1
Cell Line,relative viability (CX-5461 + Vorinostat; first compound 0.01 µM),relative viability (CX-5461 + Vorinostat; first compound 0.03162 µM),relative viability (CX-5461 + Vorinostat; first compound 0.1 µM),relative viability (CX-5461 + Vorinostat; first compound 0.3162 µM),relative viability (CX-5461 + Vorinostat; first compound 1 µM),relative viability (IMD-0354 + Dasatinib; first compound 0.04 µM),relative viability (IMD-0354 + Dasatinib; first compound 0.1265 µM),relative viability (IMD-0354 + Dasatinib; first compound 0.4 µM),relative viability (IMD-0354 + Dasatinib; first compound 1.265 µM),relative viability (IMD-0354 + Dasatinib; first compound 4 µM),relative viability (IMD-0354 + Decitabine; first compound 0.04 µM),relative viability (IMD-0354 + Decitabine; first compound 0.1265 µM),relative viability (IMD-0354 + Decitabine; first compound 0.4 µM),relative viability (IMD-0354 + Decitabine; first compound 1.265 µM),relative viability (IMD-0354 + Decitabine; first compound 4 µM),relative viability (IMD-0354 + Vorinostat; first compound 0.04 µM),relative viability (IMD-0354 + Vorinostat; first compound 0.1265 µM),relative viability (IMD-0354 + Vorinostat; first compound 0.4 µM),relative viability (IMD-0354 + Vorinostat; first compound 1.265 µM),relative viability (IMD-0354 + Vorinostat; first compound 4 µM)
NCI-H2009,0.755,0.716,0.652,0.661,0.332,0.367,0.292,0.263,0.109,0.0808,0.374,0.408,0.288,0.18,0.134,0.705,0.784,0.544,0.253,0.113
HCC-15,0.926,0.882,0.818,0.834,0.768,0.613,0.571,0.375,0.094,0.164,0.68,0.614,0.292,0.108,0.161,0.931,0.799,0.516,0.327,0.2
COR-L23,0.612,0.436,0.451,0.389,0.218,0.426,0.475,0.37,0.0763,0.201,0.402,0.443,0.339,0.141,0.146,0.419,0.466,0.403,0.0935,0.149
HCC-78,0.405,0.477,0.459,0.402,0.42,0.429,0.466,0.294,0.275,0.232,0.714,0.619,0.583,0.6,0.426,0.406,0.378,0.405,0.407,0.31
NCI-H727,1.4,1.2,1.28,1.03,1.05,0.325,0.4,0.326,0.256,0.314,0.827,0.864,0.788,0.502,0.405,1.04,1.19,0.856,0.808,0.787
NCI-H2087,0.625,0.709,0.754,0.696,0.527,0.828,0.896,0.312,0.122,0.151,0.258,0.276,0.188,0.111,0.0967,0.806,0.837,0.2,0.0721,0.0731
BEN,0.596,0.588,0.514,0.536,0.608,0.319,0.315,0.246,0.227,0.165,0.739,0.741,0.567,0.391,0.347,0.586,0.667,0.48,0.441,0.391
LCLC-103H,0.784,0.855,0.827,0.517,0.741,0.42,0.487,0.311,0.232,0.201,0.727,0.737,0.635,0.546,0.293,0.79,0.706,0.539,0.364,0.287
EKVX,0.738,0.815,0.758,0.726,0.784,0.32,0.505,0.445,0.409,0.272,0.294,0.316,–,0.36,0.155,0.469,0.754,0.556,0.691,0.359
LXF-289,0.803,0.744,0.635,–,0.544,0.249,0.244,0.207,0.0737,0.068,0.375,0.312,0.393,0.356,0.201,0.764,0.735,0.612,0.261,0.137
ABC-1,1.2,–,1.02,0.442,0.394,0.67,0.673,0.279,0.165,0.228,1.23,0.985,0.851,–,0.36,1.1,1.22,0.575,–,0.443
NCI-H650,0.462,0.294,0.635,0.399,0.312,0.514,0.484,0.404,0.264,0.197,0.303,0.3,0.346,0.288,0.201,0.385,0.445,0.349,0.366,0.133
NCI-H1650,0.619,0.466,0.33,0.61,0.261,0.368,0.33,0.183,0.142,0.137,0.378,0.455,0.285,0.203,0.129,0.541,0.724,0.377,0.199,0.193
NCI-H2085,0.854,0.82,0.708,0.865,0.719,0.219,0.241,0.298,0.195,0.201,0.59,0.516,0.551,0.421,0.337,0.825,0.902,0.617,0.376,0.362
NCI-H1944,0.538,0.569,0.383,0.25,0.271,0.21,0.212,0.22,0.167,0.114,0.44,0.451,0.398,0.473,0.147,0.496,0.575,0.384,0.251,0.148
LC-2-ad,0.732,0.768,0.716,0.659,0.491,0.644,0.486,0.253,0.146,0.126,0.876,0.698,0.5,0.322,0.199,0.732,0.691,0.394,0.193,0.169

Cell Line,relative viability (CX-5461 + Vorinostat; first compound 0.01 µM),relative viability (CX-5461 + Vorinostat; first compound 0.03162 µM),relative viability (CX-5461 + Vorinostat; first compound 0.1 µM),relative viability (CX-5461 + Vorinostat; first compound 0.3162 µM),relative viability (CX-5461 + Vorinostat; first compound 1 µM),relative viability (IMD-0354 + Dasatinib; first compound 0.04 µM),relative viability (IMD-0354 + Dasatinib; first compound 0.1265 µM),relative viability (IMD-0354 + Dasatinib; first compound 0.4 µM),relative viability (IMD-0354 + Dasatinib; first compound 1.265 µM),relative viability (IMD-0354 + Dasatinib; first compound 4 µM),relative viability (IMD-0354 + Decitabine; first compound 0.04 µM),relative viability (IMD-0354 + Decitabine; first compound 0.1265 µM),relative viability (IMD-0354 + Decitabine; first compound 0.4 µM),relative viability (IMD-0354 + Decitabine; first compound 1.265 µM),relative viability (IMD-0354 + Decitabine; first compound 4 µM),relative viability (IMD-0354 + Vorinostat; first compound 0.04 µM),relative viability (IMD-0354 + Vorinostat; first compound 0.1265 µM),relative viability (IMD-0354 + Vorinostat; first compound 0.4 µM),relative viability (IMD-0354 + Vorinostat; first compound 1.265 µM),relative viability (IMD-0354 + Vorinostat; first compound 4 µM)
COR-L 105,0.929,0.872,0.728,0.71,0.599,0.401,0.316,0.283,0.246,0.197,0.674,0.685,0.576,0.619,0.318,0.863,0.771,0.672,0.679,0.378
NCI-H1355,0.711,0.736,0.625,0.432,0.43,0.761,0.718,0.574,0.198,0.294,0.397,0.373,0.327,0.274,0.21,0.75,0.651,0.45,0.433,0.231
H3255,0.767,0.771,0.9,–,0.734,0.303,0.348,0.264,0.235,0.282,0.52,0.595,0.504,0.529,0.3,0.743,0.796,0.587,0.43,0.288
NCI-H1993,1.11,0.988,0.889,0.403,0.638,0.562,0.652,0.448,0.543,0.51,0.682,0.658,0.516,0.458,0.367,0.75,0.696,0.582,0.313,0.498
NCI-H1734,0.83,0.908,0.744,0.278,0.35,0.516,0.4,0.343,0.195,0.134,0.513,0.491,0.467,0.389,0.213,0.879,0.781,0.454,0.301,0.102
HOP-62,0.542,0.856,0.655,0.271,0.405,0.629,0.637,0.441,0.213,0.164,0.217,0.226,0.208,0.17,0.0936,0.573,0.577,0.417,0.193,0.109
LOU-NH91,0.985,0.957,0.87,0.49,0.697,0.616,0.555,0.258,0.102,0.205,0.834,0.722,0.448,0.223,0.243,1.03,0.709,0.164,0.173,0.201
ChaGo-K-1,0.786,0.81,0.699,0.262,0.513,0.635,0.59,0.434,0.2,0.237,0.509,0.508,0.435,0.511,0.198,0.851,0.741,0.519,0.244,0.255
PC-14,0.65,0.797,0.533,0.527,0.106,0.334,0.186,0.406,0.0692,0.102,0.249,0.22,0.142,0.0934,0.0785,0.83,0.751,0.564,0.234,0.119
NCI-H1437,0.942,0.871,0.791,0.858,0.749,0.528,0.381,0.255,0.0882,0.144,0.635,0.538,0.34,0.257,0.229,0.842,0.81,0.432,0.251,0.263
NCI-H460,0.721,0.909,0.216,0.48,0.0282,0.518,0.529,0.253,0.0582,0.0193,0.401,0.561,0.183,0.0498,0.0274,0.552,1.09,0.445,0.0405,0.0422
NCI-H1666,0.986,1.05,1.07,0.981,0.975,0.94,0.912,0.651,0.345,0.351,0.718,0.751,0.716,0.531,0.393,1.03,1.01,0.805,0.908,0.832
NCI-H1651,0.55,0.552,0.546,0.566,0.194,0.515,0.363,0.26,0.0542,0.0748,0.667,0.638,0.528,0.156,0.147,0.583,0.602,0.504,0.299,0.168
NCI-H1755,0.806,0.793,0.735,0.722,0.667,0.438,0.461,0.395,0.243,0.34,0.798,0.741,0.671,0.644,0.316,0.829,0.781,0.59,0.408,0.225
NCI-H661,0.822,0.8,0.734,0.472,0.583,0.903,1.04,0.533,0.197,0.234,0.567,0.534,0.389,0.244,0.233,0.835,0.714,0.455,0.248,0.2
HARA,0.516,0.568,0.485,–,0.476,0.324,0.253,0.185,0.103,0.0678,0.5,0.665,0.399,0.189,0.251,0.562,0.507,0.355,0.265,0.072

# Source: the supplement of paper PMC10307832
